What was measured:
[1] = target: wild type MLL1 four-member complex (MLL1-4C) (Homo sapiens, UniProt P61964); assay: MLL1 LC-MS assay (SAH production); assay type: biochemical; conditions: read-out: (b) MLL LCMS Peptide Val.v.1 Qualified AC50
Method in brief: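 SAH formation, measured by LC-MS/MS after a TFA quench containing d4-SAH, was normalised to no-compound and no-enzyme controls and fitted to a dose-response curve for IC50. Reactions ran 120 min at rt (pH 8.0 Tris buffer) with final 30 nM MLL1 four-member complex, 2.5 μM SAM and 10 μM biotinylated H3[1-21] peptide, after a 20-min enzyme/SAM-compound preincubation.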

MV4-11 cells = assay: MV4-11 6-day cell growth CTG (CellTiter-Glo) assay; assay type: cell-based; conditions: Homo sapiens, MV4-11, 144 h, 6 days, read-out: (c) MLL/WDR5 cell proliferation assay//MLL/WDR5 proliferation MV4:11 Qualified AC50
Method in brief: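 IC50 comes from a dose-response fit of % inhibition relative to DMSO controls, with viable cells measured by CellTiter-Glo luminescence. Compounds were tested over 12 points (1:3, starting at 50 μM final) on MV4-11 cells plated at 300/well and grown 6 days.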

WDR5 = WDR5 (Homo sapiens, UniProt P61964); assay: WDR5 HTRF binding assay; conditions: read-out: (a) WDR5 HTRF Pep Val v.1[Inhibitor/IC50]Qualified AC50
Method in brief: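 In this HTRF displacement format, biotinylated MLL1 WIN peptide (3762-3773, 20 nM) binds WDR5 (6 nM) in 25 mM Hepes pH 7.5 with 100 mM NaCl, 2 mM DTT and 0.1% BSA for 20 min at rt. Detection used streptavidin-APC/anti-His-Eu for 1 hr. IC50 came from dose-response fits of normalized signal; 15 nM biotin-PEG-His peptide served as counter assay.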

Row | SMILES | AC50 [1] [nM] | AC50 (MV4-11 cells) [nM] | IC50 (WDR5) [nM]
1 | CNc1nccn1Cc1cc2c(c(C(F)F)c1)CCN([C@@H](C)c1cc(OC)c(F)cn1)C2=O [Example 92, (S)-5-(difluoromethyl)-2-(1-(5-fluoro-4-methoxypyridin-2-yl)ethyl)-7-((2-(methylamino)-1H-imidazol-1-yl)methyl)-3,4-dihydroisoquinolin-1(2H)-one] | 10 to 1000 | 10 to 1000 | 10 to 1000
2 | CNc1nccn1Cc1cc2c(c(C(F)F)c1)CCN([C@@H](C)c1cnc(F)c(OC)c1)C2=O [Example 93, (S)-5-(difluoromethyl)-2-(1-(6-fluoro-5-methoxypyridin-3-yl)ethyl)-7-((2-(methylamino)-1H-imidazol-1-yl)methyl)-3,4-dihydroisoquinolin-1(2H)-one] | 10 to 1000 | 10 to 1000 | 10 to 1000
3 | CCOc1cc([C@H](C)N2CCc3ccc(Cn4ccnc4NC)cc3C2=O)cnc1Cl [Example 95, (S)-2-(1-(6-chloro-5-ethoxypyridin-3-yl)ethyl)-7-((2-(methylamino)-1H-imidazol-1-yl)methyl)-3,4-dihydroisoquinolin-1(2H)-one] | 10 to 1000 | 10 to 1000 | 10 to 1000
4 | CCOc1cc(CN2CCc3ccc(Cn4ccnc4NC)cc3C2=O)cnc1C#N [Example 96, 3-ethoxy-5-((7-((2-(methylamino)-1H-imidazol-1-yl)methyl)-1-oxo-3,4-dihydroisoquinolin-2(1H)-yl)methyl)picolinonitrile] | 10 to 1000 | 10 to 1000 | 10 to 1000
5 | CCOc1cc([C@H](C)N2CCc3ccc(Cn4ccnc4NC)cc3C2=O)cnc1C#N [Example 97, (S)-3-ethoxy-5-(1-(7-((2-(methylamino)-1H-imidazol-1-yl)methyl)-1-oxo-3,4-dihydroisoquinolin-2(1H)-yl)ethyl)picolinonitrile] | 10 to 1000 | 10 to 1000 | 10 to 1000
6 | CNc1nccn1Cc1cc(-c2cc(CO)cnc2Cl)c2ccn(Cc3cccc(OC(F)F)c3)c(=O)c2c1 [Example 98, 5-(2-chloro-5-(hydroxymethyl)pyridin-3-yl)-2-(3-(difluoromethoxy)benzyl)-7-((2-(methylamino)-1H-imidazol-1-yl)methyl)isoquinolin-1(2H)-one] | 10 to 1000 | 10 to 1000 | < 10
7 | CNc1nccn1Cc1cc(Br)c2ccn(Cc3ccc(F)c(OC)c3)c(=O)c2c1 [Example 99, 5-bromo-2-(4-fluoro-3-methoxybenzyl)-7-((2-(methylamino)-1H-imidazol-1-yl)methyl)isoquinolin-1(2H)-one] | 10 to 1000 | 10 to 1000 | 10 to 1000
8 | CNc1nccn1Cc1cc(-c2cc(CO)cnc2Cl)c2ccn(Cc3cccc(OC)c3)c(=O)c2c1 [Example 100, 5-(2-chloro-5-(hydroxymethyl)pyridin-3-yl)-2-(3-methoxybenzyl)-7-((2-(methylamino)-1H-imidazol-1-yl)methyl)isoquinolin-1(2H)-one] | 10 to 1000 | 10 to 1000 | 10 to 1000
9 | CNc1nccn1Cc1cc(-c2cc(CO)cnc2Cl)c2ccn(Cc3ccc(F)c(OC)c3)c(=O)c2c1 [Example 101, 5-(2-chloro-5-(hydroxymethyl)pyridin-3-yl)-2-(4-fluoro-3-methoxybenzyl)-7-((2-(methylamino)-1H-imidazol-1-yl)methyl)isoquinolin-1(2H)-one] | 10 to 1000 | 10 to 1000 | 10 to 1000
10 | CNc1nccn1Cc1cc(-c2cc(CO)cnc2Cl)c2ccn([C@@H](C)c3cccc(OC)c3)c(=O)c2c1 [Example 102, (S)-5-(2-chloro-5-(hydroxymethyl)pyridin-3-yl)-2-(1-(3-methoxyphenyl)ethyl)-7-((2-(methylamino)-1H-imidazol-1-yl)methyl)isoquinolin-1(2H)-one] | 10 to 1000 | 10 to 1000 | 10 to 1000
11 | CNc1nccn1Cc1cc(-c2cc(CO)cnc2Cl)c2ccn([C@H](C)c3cccc(OC)c3)c(=O)c2c1 [Example 103, (R)-5-(2-chloro-5-(hydroxymethyl)pyridin-3-yl)-2-(1-(3-methoxyphenyl)ethyl)-7-((2-(methylamino)-1H-imidazol-1-yl)methyl)isoquinolin-1(2H)-one] | 10 to 1000 | 10 to 1000 | 10 to 1000
12 | CNc1nccn1Cc1cc(-c2cc(CO)cnc2Cl)c2ccn(Cc3ccc(OC)c(F)c3)c(=O)c2c1 [Example 104, 5-(2-chloro-5-(hydroxymethyl)pyridin-3-yl)-2-(3-fluoro-4-methoxybenzyl)-7-((2-(methylamino)-1H-imidazol-1-yl)methyl)isoquinolin-1(2H)-one] | 10 to 1000 | 10 to 1000 | 10 to 1000
13 | CNc1nccn1Cc1cc(-c2cc(CO)cnc2Cl)c2ccn(Cc3ccc(OC)cc3)c(=O)c2c1 [Example 105, 5-(2-chloro-5-(hydroxymethyl)pyridin-3-yl)-2-(4-methoxybenzyl)-7-((2-(methylamino)-1H-imidazol-1-yl)methyl)isoquinolin-1(2H)-one] | 10 to 1000 | 10 to 1000 | 10 to 1000
14 | CNc1nccn1Cc1cc(-c2cc(C(C)O)cnc2Cl)c2ccn(Cc3ccc(F)c(OC)c3)c(=O)c2c1 (stereo not drawn) [Example 106, 5-(2-chloro-5-(1-hydroxyethyl)pyridin-3-yl)-2-(4-fluoro-3-methoxybenzyl)-7-((2-(methylamino)-1H-imidazol-1-yl)methyl)isoquinolin-1(2H)-one] | 10 to 1000 | 10 to 1000 | 10 to 1000
15 | CNc1nccn1Cc1cc(-c2cc(CO)cnc2Cl)c2ccn(Cc3cc4c(C)cccc4[nH]3)c(=O)c2c1 [Example 107, 5-(2-chloro-5-(hydroxymethyl)pyridin-3-yl)-2-((4-methyl-1H-indol-2-yl)methyl)-7-((2-(methylamino)-1H-imidazol-1-yl)methyl)isoquinolin-1(2H)-one] | 10 to 1000 | 10 to 1000 | 10 to 1000
16 | CNc1nccn1Cc1cc(-c2cc(CO)cnc2Cl)c2ccn(Cc3cc4ccccc4[nH]3)c(=O)c2c1 [Example 108, 2-((1H-indol-2-yl)methyl)-5-(2-chloro-5-(hydroxymethyl)pyridin-3-yl)-7-((2-(methylamino)-1H-imidazol-1-yl)methyl)isoquinolin-1(2H)-one] | 10 to 1000 | 10 to 1000 | 10 to 1000
17 | CCOc1cc([C@H](C)N2CCc3c(cc(CCN(C)CC)cc3-c3ccc(F)nc3C)C2=O)ncc1C#N [Example 111, (S)-4-ethoxy-6-(1-(7-(2-(ethyl(methyl)amino)ethyl)-5-(6-fluoro-2-methylpyridin-3-yl)-1-oxo-3,4-dihydroisoquinolin-2(1H)-yl)ethyl)nicotinonitrile] | 10 to 1000 | 10 to 1000 | < 10
18 | CCOc1cc(CN2CCc3c(cc(CCN(C)CC)cc3-c3cc(C)cnc3Cl)C2=O)ncc1C#N [Example 112, 6-((5-(2-chloro-5-methylpyridin-3-yl)-7-(2-(ethyl(methyl)amino)ethyl)-1-oxo-3,4-dihydroisoquinolin-2(1H)-yl)methyl)-4-ethoxynicotinonitrile] | 10 to 1000 | 10 to 1000 | < 10
19 | CCN(C)CCc1cc2c(c(-c3cn(C)nc3C)c1)CCN([C@@H](C)c1cc(OC)c(F)cn1)C2=O [Example 113, (S)-5-(1,3-dimethyl-1H-pyrazol-4-yl)-7-(2-(ethyl(methyl)amino)ethyl)-2-(1-(5-fluoro-4-methoxypyridin-2-yl)ethyl)-3,4-dihydroisoquinolin-1(2H)-one] | 10 to 1000 | 10 to 1000 | < 10
20 | CCOc1cc([C@H](C)N2CCc3c(cc(CCN(C)CC)cc3-c3cc(C)cnc3C)C2=O)ncc1C#N [Example 114, (S)-6-(1-(5-(2,5-dimethylpyridin-3-yl)-7-(2-(ethyl(methyl)amino)ethyl)-1-oxo-3,4-dihydroisoquinolin-2(1H)-yl)ethyl)-4-ethoxynicotinonitrile] | 10 to 1000 | 10 to 1000 | < 10
21 | CCOc1cc([C@H](C)N2CCc3c(cc(CCN(C)CC)cc3-c3cn(CCO)nc3C)C2=O)ncc1C#N [Example 115, (S)-4-ethoxy-6-(1-(7-(2-(ethyl(methyl)amino)ethyl)-5-(1-(2-hydroxyethyl)-3-methyl-1H-pyrazol-4-yl)-1-oxo-3,4-dihydroisoquinolin-2(1H)-yl)ethyl)nicotinonitrile] | 10 to 1000 | 10 to 1000 | < 10
22 | CCOc1cc([C@H](C)N2CCc3c(cc(CCN(C)CC)cc3-c3c[nH]nc3C)C2=O)ncc1C#N [Example 116, (S)-4-ethoxy-6-(1-(7-(2-(ethyl(methyl)amino)ethyl)-5-(3-methyl-1H-pyrazol-4-yl)-1-oxo-3,4-dihydroisoquinolin-2(1H)-yl)ethyl)nicotinonitrile] | 10 to 1000 | 10 to 1000 | < 10
23 | CCOc1cc([C@H](C)N2CCc3c(cc(CCN(C)CC)cc3-c3ccnc(F)c3C)C2=O)ncc1C#N [Example 117, (S)-4-ethoxy-6-(1-(7-(2-(ethyl(methyl)amino)ethyl)-5-(2-fluoro-3-methylpyridin-4-yl)-1-oxo-3,4-dihydroisoquinolin-2(1H)-yl)ethyl)nicotinonitrile] | 10 to 1000 | 10 to 1000 | < 10

From patent US20220289732A1, “HETEROCYCLIC WDR5 INHIBITORS AS ANTI-CANCER COMPOUNDS” (NOVARTIS AG, priority 2019, published 2022)
